Source: patent US20090326053A1, “DIAGNOSTIC USES OF FOLLISTATIN-LIKE 1” (TRUSTEES OF BOSTON UNIVERSITY, priority 2008, published 2009)

What was measured:
[1] = system: neonatal rat ventricular myocytes (NRVMs); assay: Nucleosome fragmentation ELISA in NRVMs; assay type: cell-based; conditions: inhibitor 10 μmol/L, 3 hours prior to H/R
Experimental: (§1) Myocyte cultures. Primary cultures of neonatal rat ventricular myocytes (NRVCs) were prepared and incubated in Dulbecco's modified Eagle's medium (DMEM) supplemented with 7% Fetal Calf Serum (FCS)^42. Eighteen to 24 hours after preparation, cells were transfected with adenoviral vector at a multiplicity of infection (MOI) of 50 in DMEM without serum for 16 hours and incubated in DMEM without serum for more than 12 hours. Hypoxic conditions were generated using a GasPak system (Becton Dickinson) as described previously. For hypoxia/reoxygenation studies, cells were exposed 12 hr hypoxia followed by 24 hr reoxygenation.
Detection of nucleosome fragmentation by ELISA. Nucleosome fragmentation was assessed by ELISA using Cell Death Detection kit (Roche) according to the manufacture's protocol. Cardiac myocytes were seeded in 96-well plates, transfected with adenoviral vector and exposed to H/R. In one assay, 8 wells are used for one group and assays are repeated three times. The extent of nucleosome fragmentation of each group was expressed as relative value in comparison with the value of control group (Ad-βgal transfected cells without H/R).

[2] = system: neonatal rat ventricular myocytes (NRVMs); assay: TUNEL staining of NRVMs after hypoxia/reoxygenation (H/R); assay type: cell-based; conditions: inhibitor 10 μmol/L, 3 hours prior to H/R; P<0.05
Experimental: as §1
TUNEL staining. TUNEL staining for cultured cardiac myocytes was performed using the In Situ Cell Death detection kit (Roche) as described previously^2 with some modifications. In brief, cells are fixed by 4% paraformaldehyde in PBS, permeabilized with 0.1% Triton X-100 and incubated with anti-sarcomeric actinin antibody for 60 min followed by incubation with Cy3-conjugated anti-mouse IgG antibody. Cells were then incubated with TUNEL staining solution for 1 hr according to the manufacture's protocol. DAPI was used for nuclear staining. […] TUNEL positive myocytes were counted in randomly selected three fields of the slide and the experiments were repeated three times in duplicates.

N#CC(=C(/N)Sc1ccccc1N)/C(C#N)=C(\N)Sc1ccccc1N [U0126]
inhibitory effect of Fstl1 on nucleosome fragmentation after treatment with inhibitor [1]: significantly attenuated
protective action of Ad-Fstl1 on TUNEL positive cells after pre-incubation with inhibitor [2]: partially attenuated
